Columns and labels:
[1] = tested on: epimastigote forms of Trypanosoma cruzi (Y strain); assay: Antiproliferative assay (XTT), epimastigote forms, 96 h; type: cell-based; details: for IC50: Trypanosoma cruzi, epimastigote form, 96 h, XTT, read-out: T. cruzi IC50; for SIT-F, selectivity index (Fibroblast CC50/T. cruzi IC50): fibroblast vs epimastigote; for SIT-M, selectivity index (Macrophages CC50/T. cruzi IC50): macrophages vs epimastigote
Experimental: (§1) The antiproliferative activity was determined in promastigote forms of Leishmania amazonensis (WHOM/BR/75/JOSEFA strain) and epimastigote forms of Trypanosoma cruzi (Y strain). The promastigote forms of L. amazonensis were cultured in Warren medium (brain heart infusion, hemin, and folic acid; pH 7.4) supplemented with 10 % fetal bovine serum (FBS) at 25 °C. The epimastigote forms of T.cruzi were cultured in LIT medium (liver infusion tryptose; hemin, and folic acid; pH 7.4) supplemented with 10 % FBS at 28 °C. Cytotoxicity in mammalian cells was determined in fibroblast line (L929) and macrophages (J774 A1). Fibroblasts were cultured in DMEM medium (pH 7.2) supplemented with 10 % FBS at 37 °C in a 5 % CO2 atmosphere. Macrophages were cultured in RPMI‐1640 (pH 7.2) medium supplemented with 10 % FBS at 37 °C in a 5 % CO2 atmosphere.
(§2) Stock solutions of the compounds were prepared in DMSO and then diluted in the respective medium.
(§3) Promastigote forms (1×10^6 parasites.mL^−1) were cultured in 96‐well plates in the presence and absence of different concentrations of compounds diluted in Warren medium supplemented with 10 % FBS and incubated for 72 h. The epimastigote forms (1×10^6 parasites.mL^−1) were cultured in 96‐well plates in the presence and absence of different concentrations of compounds diluted in LIT medium supplemented with 10 % FBS and incubated for 96 h. After treatment, the parasites were incubated with a solution of 2,3‐bis(2‐methoxy‐4‐nitro‐5‐sulfophenyl)‐2H‐tetrazolium‐5‐carboxanilide (XTT; 0.5 mg.mL^−1) and phenazine methanesulfonate activator (PMS; 0.06 mg.mL^−1) in PBS for 4 h. Then, the absorbance was read in a microplate reader (Bio Tek‐Power Wave XS) at 450 nm.[20] The percentage of viable parasites was calculated in relation to the control in order to determine the concentration that inhibits 50 % of the protozoa (IC50). The control groups of each experiment received the same experimental conditions as the treated groups (cell concentration used, temperature, and incubation time).

[2] = Cytotoxicity assay in mammalian cells (MTT), macrophages, 48 h; type: cell-based; details: mouse, J774 A1 macrophages, pH 7.2; 50 % inhibition of macrophages growth, 48 h, MTT
Experimental: as §1, §2
(§4) Fibroblast cell (2.5×10^5 cells.mL^−1) suspensions were prepared in DMEM medium supplemented with 10 % FBS and added to 96‐well plates. Then, the plates were incubated at 37 °C in a CO2 atmosphere for 24 h to obtain confluent cell growth. After incubation, cells were treated with different concentrations of compounds diluted in DMEM for 72 h or left untreated. Macrophage (5×10^5 cells.mL^−1) suspensions were prepared in RPMI‐1640 medium supplemented with 10 % FBS and added to 96‐well plates. Then, the plates were incubated at 37 °C in a CO2 atmosphere for 24 h to obtain confluent cell growth. After incubation, cells were treated with different concentrations of compounds diluted in RPMI‐1640 for 48 h or left untreated. After treatment, the medium was removed, and cells were incubated with MTT (2 mg.mL^−1) for 4 h. Then, DMSO was added for solubilization of the formazan and analyzed with a reading microplate reader (BIO‐TEK PowerWave XS spectrophotometer) at […].[20] The percentage of viable cells was calculated in relation to the untreated control group to determine the cytotoxic concentration in 50 % of the cells (CC50). The control groups of each experiment received the same experimental conditions as the treated groups (cell concentration used, temperature, CO2, and incubation time).

[3] = Cytotoxicity assay in mammalian cells (MTT), fibroblasts, 72 h; type: cell-based; details: mouse, L929 fibroblast cells, pH 7.2; 50 % inhibition of fibroblast growth, 72 h, MTT
Experimental: as §1, §2, §4

[4] = tested on: promastigote forms of Leishmania amazonensis (WHOM/BR/75/JOSEFA strain); assay: Antiproliferative assay (XTT), promastigote forms, 72 h; type: cell-based; details: for IC50: Leishmania amazonensis, promastigote form, 72 h, XTT, read-out: L. amazonensis IC50; for SIL-F, selectivity index (Fibroblast CC50/L. amazonensis IC50): fibroblast vs promastigote; for SIL-M, selectivity index (Macrophages CC50/L. amazonensis IC50): macrophages vs promastigote
Experimental: as §1, §2, §3

IC50 [1] [µM]	melting point [°C]	Structure (SMILES)	SIT-F, selectivity index (Fibroblast CC50/T. cruzi IC50) [1]	SIT-M, selectivity index (Macrophages CC50/T. cruzi IC50) [1]	CC50 at 48 h [2] [µM]	CC50 at 72 h [3] [µM]	IC50 [4] [µM]	SIL-F, selectivity index (Fibroblast CC50/L. amazonensis IC50) [4]	SIL-M, selectivity index (Macrophages CC50/L. amazonensis IC50) [4]
32.9 ± 3.7	172.9 to 173.4	CCOC(=O)c1noc(-c2ccc(Cl)cc2)c1CNc1ccccc1 [2 da]	4.80	4.70	155 ± 3	158 ± 7.7	29.9 ± 2.1	5.28	5.17
22.4 ± 2.6	173.3 to 175.4	CCOC(=O)c1noc(-c2ccc(Cl)cc2)c1CNc1ccc(Cl)cc1 [2 db]	4.44	3.92	87.9 ± 4.6	99.5 ± 5.7	21.6 ± 2.2	4.61	4.07
39.8 ± 3.6	189 to 190.4	NNC(=O)c1noc(-c2ccc([N+](=O)[O-])cc2)c1CNc1ccccc1 [3 aa, 3‐Carbohydrazide‐4‐(phenyl)aminomethyl‐5‐(4‐nitrophenyl)isoxazole]	4.98	3.59	142.8 ± 0.8	198 ± 9.5	42.1 ± 1.3	4.71	3.39
12.1 ± 0.9	174.1 to 176.8	NNC(=O)c1noc(-c2ccc([N+](=O)[O-])cc2)c1CNc1ccc(Cl)cc1 [3 ab]	8.12	7.58	91.7 ± 3.8	98.3 ± 4.1	15.7 ± 0.4	6.26	5.84
82.9 ± 3.4	144.2 to 146.8	COc1ccc(NCc2c(C(=O)NN)noc2-c2ccc([N+](=O)[O-])cc2)cc1 [3 ac]	6.02	4.86	403 ± 11.5	499 ± 2.7	76.7 ± 0.6	6.51	5.25
39.5 ± 5.6	151.3 to 152.4	NNC(=O)c1noc(-c2ccccc2)c1CNc1ccccc1 [3 ba]	4.78	2.79	110 ± 5.6	189 ± 9	34.9 ± 2.9	5.41	3.16
18.7 ± 1.4		COc1ccc(NCc2c(C(=O)N/N=C/c3ccccc3)noc2-c2ccc([N+](=O)[O-])cc2)cc1 [4 ac]	12.89	11.19	209 ± 8.5	241 ± 3.8	14.5 ± 2.2	16.63	14.43
24.7 ± 2.9		O=C(N/N=C/c1ccccn1)c1noc(-c2ccc([N+](=O)[O-])cc2)c1CNc1ccc(Cl)cc1 [5 ab]	4.08	3.81	94.2 ± 3.9	101 ± 4.4	26 ± 2.1	3.88	3.55
> 200		COc1ccc(NCc2c(C(=O)N/N=C/c3ccccn3)noc2-c2ccc([N+](=O)[O-])cc2)cc1 [5 ac]			723.6 ± 3	801 ± 10.4	> 200		
19.4 ± 1.1		COc1ccc(NCc2c(C(=O)N/N=C/c3ccccn3)noc2-c2ccccc2)cc1 [5 bc]	9.50	9.11	177 ± 9.8	184 ± 5.1	17.9 ± 3.7	10.3	9.88
19.7 ± 0.9		COc1ccc(NCc2c(C(=O)N/N=C/c3ccccn3)noc2-c2ccc(F)cc2)cc1 [5 cc]	14.76	12.96	255 ± 8.1	291 ± 4.7	18 ± 2.5	16.16	14.18
13.8 ± 1.5		O=C(N/N=C/c1ccc(-c2cccs2)s1)c1noc(-c2ccc([N+](=O)[O-])cc2)c1CNc1ccc(Cl)cc1 [6 ab]	8.39	6.91	95.3 ± 5.3	116 ± 5.5	12.7 ± 1.1	9.12	7.50
52.5 ± 2.9		COc1ccc(NCc2c(C(=O)N/N=C/c3ccc(-c4cccs4)s3)noc2-c2ccc([N+](=O)[O-])cc2)cc1 [6 ac]	4.40	3.50	184 ± 3	231 ± 5.9	48.9 ± 7.1	4.72	3.75
52.4 ± 2.9		O=C(N/N=C/c1ccc(-c2cccs2)s1)c1noc(-c2ccccc2)c1CNc1ccccc1 [6 ba]	3.98	3.75	196 ± 4.4	209 ± 2.9	46.9 ± 3	4.45	4.19
42.7 ± 5.6		O=C(N/N=C/c1ccc(-c2cccs2)s1)c1noc(-c2ccc(F)cc2)c1CNc1ccccc1 [6 ca]	9.07	7.22		388 ± 4.7	34.6 ± 2.4	11.2	8.92
20.4 ± 3.6		O=C(N/N=C/c1ccc(-c2cccs2)s1)c1noc(-c2ccc(F)cc2)c1CNc1ccc(Cl)cc1 [6 cb]	10.5	10.3	210 ± 3.1	215 ± 8.9	19.7 ± 2.6	10.9	10.6
22.8 ± 3		COc1ccc(NCc2c(C(=O)N/N=C/c3ccc(-c4cccs4)s3)noc2-c2ccc(F)cc2)cc1 [6 cc]	13.84	11.71	267 ± 7.9	316 ± 10.8	20.6 ± 1.7	15.32	12.97
33.6 ± 4.8		O=C(N/N=C/c1ccc(-c2cccs2)s1)c1noc(-c2ccc(Cl)cc2)c1CNc1ccc(Cl)cc1 [6 db]	9.21	8.94	300 ± 4.2	310 ± 3.1	38.5 ± 4.6	8.04	7.81

— article PMC8485799, “Synthesis and Antiprotozoal Profile of 3,4,5‐Trisubstituted Isoxazoles” (ChemistryOpen, 2021)
